Assay results as given in patent US5863763A (British Technology Group Ltd., priority 1994, dated 1999).
Square brackets hold non-standard residues; d marks the D form. Ends that are not written are not given here. Peptide text beside a SMILES is read from it. Hyp = O=C(O)[C@@H]1C[C@@H](O)CN1

Experiments:
[1] = format: in vitro ADME, Periplaneta americana; settings: for peptide remaining after incubation with haemolymph: 24 h
Description: Degradation of the Met-callatostatins induced by the haemolymph was assessed by measuring the difference between the amount of added peptide at the start of the incubation period and the total immunoassayable material present at its conclusion. Since the radioimmunoassay (RIA) is carboxy-terminal specific, any degradation at the carboxy-terminus, as for example by metalloendopeptidases able to cleave the Phe-Gly bond (Lamango et al in Insect Biochem. Mol. Biol. 23, 801-808 (1993)), would render the molecule non-immunoreactive. On the other hand partial amino-terminus degradation would result in peptides able to bind to the anti-Met-callatostatin antibodies present in the RIA solution. The mixture remaining after incubation would, therefore, contain all intact molecules and any degradation products with a carboxy-terminus of sufficient length to cross-react within the RIA. Experiments were carried out in an insect Ringer's solution containing Hepes buffer (Holman et al in Insect Biochem 21 107-112 (1991)) at 24° C. and pH 7.0 over several time periods from 15 minutes to 24 hours. In some experiments EDTA (10 mM final concentration) was added with the purpose of inhibiting metalloendopeptidases. For both C. vomitoria and P. americana 1 μl of a […] peptide solution was added to 20 μl of Ringer's solution and 15 μl pooled haemolymph. For C. vomitoria 15 μl was taken from the pooled haemolymph of 10 vitellogenic females, and for P. americana the same volume was obtained from 3-4 ootheca-carrying females. At the conclusion of the incubation period 5 μl of an 8% solution of trichloroacetic acid was added to stop the degradation process. The mixture was centrifuged for 1 minute, an 40 μl of the supernatant was added to 20 μl of water, 0.1% trifluoroacetic acid (TFA) prior to chromatography. Chromatography was carried out on a Kromasil™ (Technicol) C18 250×4.6 mm, 5 μm, 300 Å column with a gradient of 0-30% CH3 CN, 0.1% TFA at a flow rate of 1 ml/min with a rate of change of 1.0%/min. Fractions that were immunoreactive in the Met-callatostatin RIA were rechromatographed on a Delta Pak™ (Waters) C18 250×2.1 mm, 5 μm, 300 Å column with a gradient of 10-30% CH3 CN, 0.1% TFA at a flow rate of 0.2 ml/min with a rate of change of 0.5%/min. Peaks of Met-callatostatin-immunoreactive material were measured by RIA, and amino acid sequences were determined.

[2] = test system: Juvenile Hormone III release from corpora allata of virgin P. americana; experiment: Radiochemical assay, inhibition of JH III release from isolated corpora allata of P. americana; format: cell-based, Periplaneta americana; settings: 4- to 6-day-old virgin females, three hour incubations, read-out: IC50, inhibition of JH release from isolated CA
Description: (§1) Peptides identified from the extracts were synthesized (Affinity Research Products) and tested in radiochemical assays to determine their effects on the synthesis and release of juvenile hormone bisepoxide from the isolated CA of vitellogenic female C. vomitoria. Similar assays were also carried out on the CA of the cockroaches P. americana (4- to 6-day-old virgin females) and B. germanica (6-day-old virgin females). Details of the methods used have been published previously (C. vomitoria in Duve et al in Proc. Nat'l. Acad. Sci. USA 90 2456-2460 (1993), P. americana in Weaver et al in C Comp. Pharmacol. Toxicol. 107, 119-127 (1994), and Weaver, R. C. in J. Insect Physiol. 37, 111-118 (1991), and B. germanica in Piulachs et al in A Comp. Physiol. 102, 477-480 (1992). For C. vomitoria and P. americana the donor methyl group for incorporation into the JH was provided by L-[methyl-^14 C]methionine, 2.04 GBq/mmol (Amersham International plc), added to methionine-free TCC 199 medium to give a final concentration of 260 μM and for B. germanica by L-[methyl-^3 H]methionine, 3.03 TBq/mmol (Amersham) added to TCC 199 medium containing methionine to achieve a concentration of 100 μM and a final specific activity of 7.4 GBq/mmol.
For comparison, the activity of Met-callatostatin was also assayed. […]

[3] = test system: juvenile hormone bisepoxide release from the CA of C. vomitoria; experiment: Radiochemical assay, release of juvenile hormone bisepoxide from isolated CA of C. vomitoria; format: cell-based, Calliphora vomitoria; settings: results not shown
Description: as §1

[4] = test system: Met-callatostatin antisera; experiment: Liquid-phase absorption of Met-callatostatin antisera (ICC control); format: binding, rabbit; settings: at 50 μM
From the text: A variety of tissues including brain, corpora cardiaca-CA-hypocerebral ganglion complex, thoracicoabdominal ganglion, and the entire gut were fixed in aqueous Bouin's fluid, embedded in paraffin, and sectioned at 6 μm (Duve et al in Cell Tissue Res. 251, 399-415 (1988)). The peroxidase-antiperoxidase method of Sternberger (publ. "Immunocytochemistry" 1974)) was used in combination with the three Met-callatostatin antisera, from rabbits D1, D2 and D3, each of which gave essential, the same results. The results presented here were obtained mainly with antiserum from rabbit D1 bleed 5 used at a concentration of 1:2000 for 24 h at 4° C. Other tissues, including the brain, thoracicoabdominal ganglion, and the gut, complete with its neural connections, were fixed in 4% paraformaldehyde for whole-mount studies using the indirect immunofluorescence technique with either UV or confocal laser scanning microscopy. After fixation, tissues were washed in phosphate-buffered saline and permeabilized in methanol in phosphate-buffered saline. The tissues were washed in phosphate-buffered saline containing 0.2% bovine serum albumin and Triton X-100 (PBT buffer). Incubation of tissues with the Met-callatostatin antisera was at 4° C. over 24 h. […]

hindgut of C. vomitoria = experiment: Inhibition of peristalsis of the hindgut (ileum) of C. vomitoria; set-up: species or system Calliphora vomitoria; settings: for inhibition of normal peristaltic movements of the ileum: at 1 μm, normal movements 9-10/min
Description: Adult female C. vomitoria were fed sugar, water and meat for 7 days prior to studying the effect of synthetic peptides (Affinity Research Products Ltd, Nottingham) on gut motility. The stage of development of the oocytes of each fly was recorded to provide a physiological base line. The gut and reproductive system were transferred to a 100-μl Sylgard chamber (Sylgard 184, Dow Corning) and bathed in a Calliphora Ringer's solution (Duve et al in Regul. Pept. 35 145-159 (1991)). Peristaltic movements of the ileum and the other forms of contraction in the rest of the gut and reproductive musculature were observed under a microscope. The preparation was superfused with several washes of Ringer's solution, after which peristaltic movements of the ileum were counted over a 2-minute period. The bathing fluid was replaced with fresh Ringer's solution containing the test peptide and the counting repeated. This procedure could be carried out many times for a single preparation.
Peptide solutions were made up in Ringer's solution on the day of the experiments, which were carried out at 22° C. Approximately 50 female flies were used.
Each point represents the mean of 5-16 measurements from a number of different vitellogenic female flies (callatostatin is abbreviated to cast in the figure).

[5] = test system: JH release from CA of B. germanica; experiment: Radiochemical assay, inhibition of JH release from isolated corpora allata of B. germanica; format: cell-based, Blattella germanica; settings: results not shown
Description: as §1

[6] = pooled haemolymph of C. vomitoria in insect Ringer's solution containing Hepes buffer, pH 7.0; settings: C. vomitoria (10 vitellogenic females), 24° C., up to 24 hours
[7] = pooled haemolymph of 10 vitellogenic females in insect Ringer's solution containing Hepes buffer; settings: C. vomitoria, 24° C., up to 24 hours
[8] = pooled haemolymph of P. americana in insect Ringer's solution containing Hepes buffer, pH 7.0; settings: P. americana (3-4 ootheca-carrying females), 24° C., up to 24 hours

Compound	degradation by enzymes in the haemolymph of cockroaches [1]	cleavage product identified after incubation [1]	degradation in haemolymph [1]	peptide remaining after incubation with haemolymph [1]	IC50 [2] [nM]	effect on the release of juvenile hormone bisepoxide from the CA [3]	abolition of immunostaining by absorption of antisera [4]	inhibition of normal peristaltic movements of the ileum (hindgut of C. vomitoria)	IC50 (hindgut of C. vomitoria; monophasic dose-response curve) [nM]	IC50 [5] [nM]	fragment found [6]	fragment found [7]	fragment found [8]
CSCC[C@H](NC(=O)CNC(=O)[C@H](Cc1ccccc1)NC(=O)[C@H](CC(=O)O)NC(=O)[C@H](Cc1ccc(O)cc1)NC(=O)[C@@H]1CCCN1C(=O)[C@@H]1C[C@@H](O)CN1C(=O)CN)C(N)=O [[Hyp^2]Met-callatostatin, Gly-Hyp-Pro-Tyr-Asp-Phe-Gly-Met-NH2] (H-G[Hyp]PYDFGM-NH2)	not												
GPPYDFGM-NH2 [Met-callatostatin, Gly-Pro-Pro-Tyr-Asp-Phe-Gly-Met-NH2]	able to degrade	Tyr-Asp-Phe-Gly-Met-NH2	degraded to approximately the same extent as in C. vomitoria	less than 10%	0.1	neither peptide had any effect	abolished the immunostaining	completely inhibited	100	1000			
GP[Hyp]YDFGM-NH2											oxidised form of the parent compound, 2-hour	oxidised form of the parent compound	
GPPYDFGM-NH2											oxidised form of the parent compound, 2-hour	oxidised form of the parent compound	Tyr-Asp-Phe-Gly-Met-NH2 (SEQ ID NO:9), 2-hour
CSCC[C@H](NC(=O)CNC(=O)[C@H](Cc1ccccc1)NC(=O)[C@H](CC(=O)O)NC(=O)[C@H](Cc1ccc(O)cc1)NC(=O)[C@@H]1C[C@@H](O)CN1C(=O)[C@@H]1CCCN1C(=O)CN)C(N)=O [[Hyp^3]Met-callatostatin, Gly-Pro-Hyp-Tyr-Asp-Phe-Gly-Met-NH2] (H-GP[Hyp]YDFGM-NH2)	not	not	more resistant	less than 10%	0.1	neither peptide had any effect	abolished the immunostaining	completely inhibited		1000			
